According to US9856242B2, “5-fluoro-N-(pyridin-2-yl)pyridin-2-amine derivatives containing a sulfone group” (Bayer Pharma Aktiengesellschaft, priority 2014, dated 2018):

Legend:
HeLa cells = test: Proliferation assay (Method 3), HeLa; type: cell-based; conditions: 96 h, human cervical tumour, 4 days, crystal violet, read-out: Inhibition of HeLa cell proliferation IC50
Method: (§1) Cultivated tumour cells (HeLa, human cervical tumour cells, ATCC CCL-2; NCI-H460, human non-small cell lung carcinoma cells, ATCC HTB-177; A2780, human ovarian carcinoma cells, ECACC #93112519; DU 145, hormone-independent human prostate carcinoma cells, ATCC HTB-81; HeLa-MaTu-ADR, multidrug-resistant human cervical carcinoma cells, EPO-GmbH Berlin; Caco-2, human colorectal carcinoma cells, ATCC HTB-37; B16F10, mouse melanoma cells, ATCC CRL-6475) were plated at a density of 5,000 cells/well (DU145, HeLa-MaTu-ADR), 3,000 cells/well (NCI-H460, HeLa), 2,500 cells/well (A2780), 1,500 cells/well (Caco-2), or 1,000 cells/well (B16F10) in a 96-well multititer plate in 200 μL of their respective growth medium supplemented 10% fetal calf serum. After 24 hours, the cells of one plate (zero-point plate) were stained with crystal violet (see below), while the medium of the other plates was replaced by fresh culture medium (200 μl), to which the test substances were added in various concentrations (0 μM, as well as in the range of 0.001-10 μM; the final concentration of the solvent dimethyl sulfoxide was 0.5%). The cells were incubated for 4 days in the presence of test substances. Cell proliferation was determined by staining the cells with crystal violet: the cells were fixed by adding 20 μl/measuring point of an 11% glutaric aldehyde solution for 15 minutes at room temperature. After three washing cycles of the fixed cells with water, the plates were dried at room temperature. The cells were stained by adding 100 μl/measuring point of a 0.1% crystal violet solution (pH 3.0). After three washing cycles of the stained cells with water, the plates were dried at room temperature. The dye was dissolved by adding 100 μl/measuring point of a 10% acetic acid solution. The extinction was determined by photometry at a wavelength of 595 nm. The change of cell number, in percent, was calculated by normalization of the measured values to the extinction values of the zero-point plate (=0%) and the extinction of the untreated (0 μm) cells (=100%). The IC50 values (inhibitory concentration at 50% of maximal effect) were determined by means of a 4 parameter fit.

CDK9/CycT1 = target: T1, CDK9/CycT1 (Homo sapiens, UniProt P50750); test: CDK9/CycT1 kinase assay (Method 1a, TR-FRET, 10 μM ATP); type: biochemical; conditions: for IC50: Method 1a, 10 μM ATP; for Selectivity CDK9/CDK2: according to Methods 1a and 2a (ratio of CDK2 IC50 to CDK9 IC50)
T1 construct: Recombinant full-length His-tagged human CDK9 and CycT1; His; purchased Invitrogen PV4131; host or cells: insect cells
Text: 1a. CDK9/CycT1 Kinase Assay:
CDK9/CycT1-inhibitory activity of compounds of the present invention was quantified employing the CDK9/CycT1 TR-FRET assay as described in the following paragraphs:
Recombinant full-length His-tagged human CDK9 and CycT1, expressed in insect cells and purified by Ni-NTA affinity chromatography, were purchased from Invitrogen (Cat. No PV4131). As substrate for the kinase reaction biotinylated peptide biotin-Ttds-YISPLKSPYKISEG (C-terminus in amid form) was used which can be purchased e.g. form the company JERINI Peptide Technologies (Berlin, Germany). For the assay 50 n1 of a 100 fold concentrated solution of the test compound in DMSO was pipetted into a black low volume 384 well microtiter plate (Greiner Bio-One, Frickenhausen, Germany), 2 μl of a solution of CDK9/CycT1 in aqueous assay buffer [50 mM Tris/HCl pH 8.0, 10 mM MgCl2, 1.0 mM dithiothreitol, 0.1 mM sodium ortho-vanadate, 0.01% (v/v) Nonidet-P40 (Sigma)] were added and the mixture was incubated for 15 min at 22° C. to allow pre-binding of the test compounds to the enzyme before the start of the kinase reaction. Then the kinase reaction was started by the addition of 3 μl of a solution of adenosine-tri-phosphate (ATP, 16.7 μM=>final conc. in the 5 μl assay volume is 10 μM) and substrate (1.67 μM=>final conc. in the 5 μl assay volume is 1 μM) in assay buffer and the resulting mixture was incubated for a reaction time of 25 min at 22° C. The concentration of CDK9/CycT1 was adjusted depending of the activity of the enzyme lot and was chosen appropriate to have the assay in the linear range, typical concentrations were in the range of 1 μg/mL. The reaction was stopped by the addition of 5 μl of a solution of TR-FRET detection reagents (0.2 μM streptavidine-XL665 [Cisbio Bioassays, Codolet, France] and 1 nM anti-RB(pSer807/pSer811)-antibody from BD Pharmingen [#558389] and 1.2 nM LANCE EU-W1024 labeled anti-mouse IgG antibody [Perkin-Elmer, product no. AD0077]) in an aqueous EDTA-solution (100 mM EDTA, 0.2% (w/v) bovine serum albumin in 100 mM HEPES/NaOH pH 7.0).
The resulting mixture was incubated 1 h at 22° C. to allow the formation of complex between the phosphorylated biotinylated peptide and the detection reagents. Subsequently the amount of phosphorylated substrate was evaluated by measurement of the resonance energy transfer from the Eu-chelate to the streptavidine-XL. Therefore, the fluorescence emissions at 620 nm and 665 nm after excitation at 350 nm was measured in a HTRF reader, e.g. a Rubystar (BMG Labtechnologies, Offenburg, Germany) or a Viewlux (Perkin-Elmer). The ratio of the emissions at 665 nm and at […] was taken as the measure for the amount of phosphorylated substrate. The data were normalised (enzyme reaction without inhibitor=0% inhibition, all other assay components but no enzyme=100% inhibition).

HeLa-MaTu-ADR cells = test: Proliferation assay (Method 3), HeLa-MaTu-ADR; type: cell-based; conditions: 96 h; multidrug-resistant human cervical carcinoma, 4 days, crystal violet; read-out: Inhibition of HeLa-MaTu-ADR cell proliferation IC50
Method: as §1

T1 sequence (P50750 whole entry): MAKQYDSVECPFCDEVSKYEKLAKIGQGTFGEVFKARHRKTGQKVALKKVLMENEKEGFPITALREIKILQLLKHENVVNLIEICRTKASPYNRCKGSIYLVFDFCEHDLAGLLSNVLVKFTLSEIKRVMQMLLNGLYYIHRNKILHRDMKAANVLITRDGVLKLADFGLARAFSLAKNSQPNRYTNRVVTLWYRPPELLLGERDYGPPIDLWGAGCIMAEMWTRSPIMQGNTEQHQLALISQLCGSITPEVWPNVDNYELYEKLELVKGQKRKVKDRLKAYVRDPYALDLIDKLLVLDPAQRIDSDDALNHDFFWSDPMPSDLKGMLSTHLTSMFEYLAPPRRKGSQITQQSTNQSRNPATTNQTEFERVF
T1 sequence (O60563 whole entry partner): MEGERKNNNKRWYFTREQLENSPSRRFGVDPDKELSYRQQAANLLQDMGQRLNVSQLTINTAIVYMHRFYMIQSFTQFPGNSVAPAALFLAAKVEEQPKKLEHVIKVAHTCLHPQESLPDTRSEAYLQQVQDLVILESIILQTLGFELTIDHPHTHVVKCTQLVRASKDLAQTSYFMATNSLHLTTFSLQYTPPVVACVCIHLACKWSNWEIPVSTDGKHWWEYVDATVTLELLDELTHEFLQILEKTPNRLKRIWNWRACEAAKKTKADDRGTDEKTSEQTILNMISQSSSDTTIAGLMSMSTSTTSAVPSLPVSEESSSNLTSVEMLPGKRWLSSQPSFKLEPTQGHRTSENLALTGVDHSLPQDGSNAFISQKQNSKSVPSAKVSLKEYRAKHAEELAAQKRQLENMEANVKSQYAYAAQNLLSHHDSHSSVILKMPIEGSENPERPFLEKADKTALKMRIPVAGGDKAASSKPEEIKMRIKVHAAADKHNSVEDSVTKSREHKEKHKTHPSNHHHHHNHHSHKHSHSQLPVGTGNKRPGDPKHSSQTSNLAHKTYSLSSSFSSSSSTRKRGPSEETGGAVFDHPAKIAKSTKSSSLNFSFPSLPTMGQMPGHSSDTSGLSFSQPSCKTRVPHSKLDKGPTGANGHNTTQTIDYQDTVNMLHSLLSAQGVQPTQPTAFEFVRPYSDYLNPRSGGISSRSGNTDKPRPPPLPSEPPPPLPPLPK

| IC50 (HeLa cells) | IC50 (CDK9/CycT1) | Selectivity CDK9/CDK2 (CDK9/CycT1) | IC50 (HeLa-MaTu-ADR cells) | Structure (SMILES) |
| --- | --- | --- | --- | --- |
| 6 nM | 3 nM | 29 | 36 nM | CS(=O)(=O)Cc1ccnc(Nc2cc(-c3ccc(F)c4ccoc34)c(F)cn2)c1 [Example 1, 5-Fluoro-4-(4-fluoro-1-benzofuran-7-yl)-N-{4-[(methylsulfonyl)methyl]pyridin-2-yl}pyridin-2-amine] |
| 40 nM | 4 nM | 18 | 24 nM | CS(=O)(=O)Cc1cc(F)nc(Nc2cc(-c3ccc(F)c4ccoc34)c(F)cn2)c1 [Example 2, 5-Fluoro-4-(4-fluoro-1-benzofuran-7-yl)-N-{6-fluoro-4-[(methylsulfonyl)methyl]pyridin-2-yl}pyridin-2-amine] |
| 12 nM |  |  | 18 nM | Cc1cc(CS(C)(=O)=O)cc(Nc2cc(-c3ccc(F)c4ccoc34)c(F)cn2)n1 [Example 3, 5-Fluoro-4-(4-fluoro-1-benzofuran-7-yl)-N-{6-methyl-4-[(methylsulfonyl)methyl]pyridin-2-yl}pyridin-2-amine] |
| 13 nM |  |  | 23 nM | CS(=O)(=O)Cc1cc(Nc2cc(-c3ccc(F)c4ccoc34)c(F)cn2)nc(C(F)(F)F)c1 [Example 4, 5-Fluoro-4-(4-fluoro-1-benzofuran-7-yl)-N-{4-[(methylsulfonyl)methyl]-6-(trifluoromethyl)pyridin-2-yl}pyridin-2-amine] |
| 68 nM | 4 nM | 17 | 68 nM | CS(=O)(=O)Cc1ccnc(Nc2cc(-c3cccc4ccoc34)c(F)cn2)c1 [Example 5, 4-(1-Benzofuran-7-yl)-5-fluoro-N-{4-[(methylsulfonyl)methyl]pyridin-2-yl}pyridin-2-amine] |
